Reference: PubChem BioAssay AID256 (DTP/NCI, 2004)
Values joined by “and” are separate entries in the source; they are usually repeats but may differ in a detail not shown here. Equal entries are not always repeated. Inconclusive results and toxic doses are left out. Rule for the calls: active = survival T/C of 150% or more; inactive = T/C below 125% in these data.

Tested on: CD2F1 mice, L1210 leukemia ip, survival T/C
Experiment: NCI In Vivo Anticancer Drug Screen. Data for tumor model L1210 Leukemia (intraperitoneal) in CD2F1 (CDF1) mice
Settings: endpoint: mean survival time, higher = longer survival
In short: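 Mice carrying a transplanted tumor received test compound or vehicle alone. The value is the measurement in the treated group divided by that in the vehicle-treated control group.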

[1] = dose: 100.0 mg/kg/injection, schedule: Q01DX009 (ip), vehicle: saline with Tween-80
[2] = dose: 200.0 mg/kg/injection, schedule: Q01DX009 (ip), vehicle: saline with Tween-80
[3] = dose: 400.0 mg/kg/injection, schedule: Q01DX009 (ip), vehicle: saline with Tween-80
[4] = dose: 100.0 mg/kg/injection, schedule: Q04DX003 (ip), vehicle: saline with Tween-80
[5] = dose: 200.0 mg/kg/injection, schedule: Q04DX003 (ip), vehicle: saline with Tween-80
[6] = dose: 400.0 mg/kg/injection, schedule: Q04DX003 (ip), vehicle: saline with Tween-80
[7] = dose: 25.0 mg/kg/injection, schedule: Q04DX003 (ip), vehicle: saline with Tween-80
[8] = dose: 50.0 mg/kg/injection, schedule: Q04DX003 (ip), vehicle: saline with Tween-80
[9] = dose: 100.0 mg/kg/injection, schedule: Q01DX001 (ip), vehicle: saline
[10] = dose: 200.0 mg/kg/injection, schedule: Q01DX001 (ip), vehicle: saline
[11] = dose: 400.0 mg/kg/injection, schedule: Q01DX001 (ip), vehicle: saline
[12] = dose: 12.5 mg/kg/injection, schedule: Q01DX009 (ip), vehicle: Klucel (hydroxypropylcellulose) (HPC)
[13] = dose: 25.0 mg/kg/injection, schedule: Q01DX009 (ip), vehicle: Klucel (hydroxypropylcellulose) (HPC)
[14] = dose: 50.0 mg/kg/injection, schedule: Q01DX009 (ip), vehicle: Klucel (hydroxypropylcellulose) (HPC)
[15] = dose: 100.0 mg/kg/injection, schedule: Q01DX009 (ip), vehicle: Klucel (hydroxypropylcellulose) (HPC)
[16] = dose: 200.0 mg/kg/injection, schedule: Q01DX009 (ip), vehicle: Klucel (hydroxypropylcellulose) (HPC)
[17] = dose: 5.0 mg/kg/injection, schedule: Q04DX003 (ip), vehicle: saline
[18] = dose: 10.0 mg/kg/injection, schedule: Q04DX003 (ip), vehicle: saline

Measured: T/C

O/N=C1\CCCC\C1=N/O.O/N=C1\CCCC\C1=N/O.[Pt]
inactive: dose: 3.13 mg/kg/injection, schedule: Q04DX003 (ip), vehicle: dextrose 98 % of control | dose: 6.25 mg/kg/injection, schedule: Q04DX003 (ip), vehicle: dextrose 98 % of control | dose: 12.5 mg/kg/injection, schedule: Q04DX003 (ip), vehicle: dextrose 101 % of control | dose: 25.0 mg/kg/injection, schedule: Q04DX003 (ip), vehicle: dextrose 98 % of control | dose: 50.0 mg/kg/injection, schedule: Q04DX003 (ip), vehicle: dextrose 97 % of control and 101 % of control | dose: 100.0 mg/kg/injection, schedule: Q04DX003 (ip), vehicle: dextrose 93 % of control and 101 % of control | dose: 200.0 mg/kg/injection, schedule: Q04DX003 (ip), vehicle: dextrose 96 % of control and 101 % of control | dose: 400.0 mg/kg/injection, schedule: Q04DX003 (ip), vehicle: dextrose 101 % of control

O=C(OC1COC(OCc2ccccc2)C(OC(=O)c2ccccc2)C1OC(=O)c1ccccc1)c1ccccc1 (stereo not drawn)
inactive: dose: 6.25 mg/kg/injection, schedule: Q01DX009 (ip), vehicle: saline with Tween-80 102 % of control | dose: 12.5 mg/kg/injection, schedule: Q01DX009 (ip), vehicle: saline with Tween-80 105 % of control | dose: 25.0 mg/kg/injection, schedule: Q01DX009 (ip), vehicle: saline with Tween-80 108 % of control

CC(C)CNC(=O)Nc1ccccc1C(F)(F)F
inactive: [1] 96 % of control | [2] 98 % of control | [3] 91 % of control

O=C(O)CCc1cccnc1
inactive: [1] 95 % of control | [2] 104 % of control | [3] 111 % of control

CC(C)(C)OC(=O)C(CCC(=O)O)NC(=O)OCc1ccccc1 (stereo not drawn)
inactive: [4] 99 % of control | [5] 97 % of control | [6] 100 % of control

C=CCNC(=O)C[n+]1cccc(C(=O)NC)c1
inactive: dose: 100.0 mg/kg/injection, schedule: Q04DX003 (ip), vehicle: saline 100 % of control | dose: 200.0 mg/kg/injection, schedule: Q04DX003 (ip), vehicle: saline 102 % of control | dose: 400.0 mg/kg/injection, schedule: Q04DX003 (ip), vehicle: saline 102 % of control

Cc1cc(C)nc(C)c1.[Cl-].[Cl-].[Cl-].[Cl-].[Pt+2]
inactive: [7] 98 % of control | [8] 101 % of control | [4] 103 % of control

COc1cccc2c1CCC1(O)OC(=O)CC21 (stereo not drawn)
inactive: [9] 98 % of control | [10] 98 % of control | [11] 95 % of control

CC(O)CN(C)C (stereo not drawn)
inactive: [9] 98 % of control | [10] 103 % of control | [11] 103 % of control

Cc1ccc(S(=O)(=O)N(O)c2ccccc2)cc1
inactive: [4] 100 % of control | [5] 100 % of control | [6] 103 % of control

CC(O)C(=O)NN (stereo not drawn)
inactive: [1] 112 % of control | [2] 116 % of control | [3] 93 % of control

COc1c2c(c(OC)c3c1C(=O)c1ccccc1C3=O)CC(O)CC2 (stereo not drawn)
inactive: [12] 92 % of control | [13] 94 % of control | [14] 92 % of control | [15] 88 % of control | [16] 90 % of control

CCCCCCCCCCCCCC[N+]1(CC)CCCCC1
inactive: dose: 0.12 mg/kg/injection, schedule: Q01DX009 (ip), vehicle: saline 100 % of control | dose: 0.39 mg/kg/injection, schedule: Q01DX009 (ip), vehicle: saline 103 % of control | dose: 0.78 mg/kg/injection, schedule: Q01DX009 (ip), vehicle: saline 106 % of control | dose: 1.56 mg/kg/injection, schedule: Q01DX009 (ip), vehicle: saline 97 % of control

NN(C(=O)c1ccccc1)C1CCCCC1
inactive: [1] 97 % of control

CN(N=Nc1ccc(C(N)=O)cc1)C(C)(C)C
inactive: dose: 18.75 mg/kg/injection, schedule: Q01DX009 (ip), vehicle: Klucel (hydroxypropylcellulose) (HPC) 97 % of control | dose: 37.5 mg/kg/injection, schedule: Q01DX009 (ip), vehicle: Klucel (hydroxypropylcellulose) (HPC) 101 % of control | dose: 75.0 mg/kg/injection, schedule: Q01DX009 (ip), vehicle: Klucel (hydroxypropylcellulose) (HPC) 100 % of control | dose: 150.0 mg/kg/injection, schedule: Q01DX009 (ip), vehicle: Klucel (hydroxypropylcellulose) (HPC) 106 % of control | dose: 300.0 mg/kg/injection, schedule: Q01DX009 (ip), vehicle: Klucel (hydroxypropylcellulose) (HPC) 119 % of control

[O]=[Nb]
inactive: [17] 102 % of control | [18] 98 % of control

FC(F)(F)S.[Hg]
inactive: [17] 101 % of control | [18] 97 % of control | dose: 20.0 mg/kg/injection, schedule: Q04DX003 (ip), vehicle: saline 95 % of control

C[CH2][Sn]([c]1ccccc1)([c]1ccccc1)[c]1ccccc1
inactive: dose: 12.5 mg/kg/injection, schedule: Q04DX003 (ip), vehicle: saline with Tween-80 97 % of control | [7] 100 % of control | [8] 94 % of control

CC1NCCCNCCCNC(C)c2cccc1n2 (stereo not drawn)
inactive: dose: 50.0 mg/kg/injection, schedule: Q04DX002 (ip), vehicle: saline 104 % of control

Nc1cccc[n+]1CC(O)C(=O)[O-] (stereo not drawn)
inactive: dose: 50.0 mg/kg/injection, schedule: Q01DX001 (ip), vehicle: saline 107 % of control | [9] 98 % of control | [10] 101 % of control

CSc1[nH]c2ncnc(Cl)c2c1C#N
inactive: dose: 75.0 mg/kg/injection, schedule: Q01DX001 (ip), vehicle: saline 100 % of control | dose: 150.0 mg/kg/injection, schedule: Q01DX001 (ip), vehicle: saline 94 % of control

NNC(=O)c1ccc(-c2ccccc2)cc1
inactive: dose: 1.56 mg/kg/injection, schedule: Q01DX009 (ip), vehicle: Klucel (hydroxypropylcellulose) (HPC) 100 % of control | dose: 3.13 mg/kg/injection, schedule: Q01DX009 (ip), vehicle: Klucel (hydroxypropylcellulose) (HPC) 98 % of control | dose: 6.25 mg/kg/injection, schedule: Q01DX009 (ip), vehicle: Klucel (hydroxypropylcellulose) (HPC) 96 % of control | [12] 102 % of control | [13] 94 % of control | dose: 25.0 mg/kg/injection, schedule: Q01DX009 (ip), vehicle: water 108 % of control | dose: 50.0 mg/kg/injection, schedule: Q01DX009 (ip), vehicle: water 102 % of control | dose: 100.0 mg/kg/injection, schedule: Q01DX009 (ip), vehicle: water 100 % of control

CC1(Br)C(Sc2ccccc2[N+](=O)[O-])=Nc2ccccc21 (stereo not drawn)
inactive: [14] 94 % of control | [15] 94 % of control | [16] 94 % of control
